The values below come from PubChem BioAssay AID179 (DTP/NCI, 2004).

The test system of this assay is CEM cells HIV-1 protection, formazan growth assay. Description: NCI AIDS Antiviral Assay. The settings on record: for IC50: measured here: growth of uninfected CEM cells. An outline of the steps:
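Soluble formazan readout of cell growth; CEM cells ± HIV-1; 5 drug concs. ≥50% protection → retest; ≥50% again = moderately active; reproducible 100% = confirmed active.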

Where “and” joins values, the source holds several entries; their conditions need not be identical. Equal values may be shown once. Calls of active or inactive are those of the source.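 The calls were made as follows: active = compounds giving half or more protection of infected cells from virus-caused growth loss, again on retest; inactive = the rest.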

As to `NC(C(=O)O)C1=CCCCCC1` (centres undefined), the EC50 (in general, the concentration at which the effect is half-maximal) was above 200 µM and the IC50 – broadly, the midpoint of a concentration-inhibition curve – was above 200 µM.

Take `CC(=O)OCC1OC(n2c3c(cc(C#N)c2=S)CCCCCC3)C(OC(C)=O)C(OC(C)=O)C1OC(C)=O` (centres undefined): the EC50 is above 200 µM and the concentration for half-maximal inhibition (IC50) stood at 52.5 µM.

In the case of `CC(=C/c1ccccc1)/C=C1/NC(=S)N(CN2CCCCCC2)C1=O`, the EC50 was above 200 µM and the IC50 was 110 µM.

For `CCOC(=O)/C(O)=C1\C(=O)N(C)C(=O)C1c1cccc(OC)c1` (centres undefined), the result was inactive.

Turning to `N#CCCN(c1ccc(C=Nc2ccccc2Cl)cc1)S(=O)(=O)c1ccccc1`, the EC50 is above 427 µM and the IC50 was 331 µM.

Regarding `O=C(CN1C(=O)c2ccccc2C1=O)OCC1CCCN2CCCCC12` (centres undefined), the EC50 is above 200 µM and the IC50 was above 200 µM.

On to `C=C(CCCC(C)OC(C)OCC)[Si](C)(C)C` (centres undefined), for which the EC50 is above 38.9 µM and the IC50 was above 38.9 µM.

In the case of `COC12c3ccccc3-c3ccccc3C1[C@H]1C(=O)OC(=O)[C@H]12` (some centres undefined), the EC50 is above 162 µM and the concentration for half-maximal inhibition (IC50) was above 162 µM.

On to `N=C(N)c1ccc(C(NC(=O)CNS(=O)(=O)c2ccc3ccccc3c2)P(=O)(Oc2ccccc2)Oc2ccccc2)cc1` (centres undefined), for which the EC50 is 0.741 µM and the IC50 was found to be 7.08 µM.

Take `CC(CN1CCN(CC(C)Nc2ccnc3cc(Cl)ccc23)CC1)Nc1ccnc2cc(Cl)ccc12` (centres undefined): the EC50 was above 50.1 µM and the IC50 was above 50.1 µM.

For `CN(C)C(=Nc1nc(=[N+](C)C)ss1)N(C)C`, the result was inactive.

Turning to `CC12C(=O)CC(CC1=O)C2(C)C`, the EC50 was above 200 µM and the IC50 is above 200 µM.

Take `O=C(Cc1ccccc1)N/N=C(/CCN1CCCC1)CC(c1ccccc1)c1c(O)c2ccccc2oc1=O` (centres undefined): the result was inactive.

As to `O=C(O)c1ccc(C(=O)c2ccccc2C(=O)O)cc1`, the EC50 was above 200 µM and the IC50 is above 200 µM.

Consider `CC(=O)NCCC1CNc2ccccc21` (centres undefined), for which the EC50 was above 200 µM and the IC50 is above 200 µM.

As for `CC(=O)CN=C(C)NNc1ccc([N+](=O)[O-])cc1[N+](=O)[O-]`, the EC50 is above 200 µM and the IC50 amounted to 60.3 µM.

As for `c1ccc2c(c1)[nH]c1nc3cc(-c4ccc5nc6c(nc5c4)[nH]c4ccccc46)ccc3nc12`, the EC50 is above 200 µM and the IC50 was determined as 110 µM.

Regarding `CSC1=NC(=O)CCN1C1OCC(OC(C)=O)C(OC(C)=O)C1OC(C)=O` (centres undefined), the EC50 is above 200 µM and the concentration for half-maximal inhibition (IC50) stood at 105 µM.

Take `CCCCCCC(=O)C/C(=N/NC(N)=S)C(=O)NC1C2CC3CC(C2)CC1C3` (centres undefined): the EC50 was above 219 µM and the IC50 is above 219 µM.

Turning to `CCOC(=O)CC(NCc1ccc(N=Cc2nc3ccc(C(F)(F)F)cc3nc2-c2ccccc2)cc1)C(=O)OCC` (centres undefined), the EC50 was above 200 µM and the IC50 came to 162 µM.

As for `CCOC(=O)c1cc(-n2nnc3ccccc32)cn1C`, the EC50 is above 200 µM and the 50% inhibitory concentration (IC50) was found to be 46.8 µM.

In the case of `CC(=O)c1ccc2c(c1)CC1(C2)Cc2cc3c(c(C(=O)O)c2C1)CCC3` (centres undefined), the EC50 is above 200 µM and the concentration for half-maximal inhibition (IC50) was 61.7 µM.

Consider `O=C1OC(c2ccccc2)=N/C1=C\c1ccc2ccccc2c1`, for which the EC50 is above 17.4 µM and the IC50 was above 17.4 µM.

With `CCOC(=O)C1CC(C(=O)OCC)c2nc3ccccc3nc21` (centres undefined), the EC50 was above 8.71 µM and the IC50 is above 8.71 µM.

In the case of `O=C1N[C@H]2[C@H](CS[C@H]2CCCCC(=O)N(CCP(c2ccccc2)c2ccccc2)CCP(c2ccccc2)c2ccccc2)N1`, the EC50 was above 14.8 µM and the IC50 is above 14.8 µM.

Take `O=C(NNC(=S)Nc1ccccc1)c1csc(NC(=S)NC2CCCCC2)n1`: the EC50 is 6.92 µM and the IC50 stood at 7.41 µM.

`Nn1c(Cc2ccc(Cl)cc2)n[nH]c1=O`: the EC50 was above 200 µM and the IC50 was above 200 µM.

As to `CC(CO)(CO)N1C(=O)c2cccc3cc([N+](=O)[O-])cc(c23)C1=O`, the EC50 was above 200 µM and the half-inhibitory concentration (IC50) was above 200 µM.

Regarding `O=C1CN(c2ccc(Cl)cc2)C(=O)CN1CCN1CC(=O)N(c2ccc(Cl)cc2)CC1=O`, the EC50 was above 200 µM and the IC50 was above 200 µM.

Turning to `c1ccc2oc(NCCSSCCNc3nc4ccccc4o3)nc2c1`, the EC50 was above 200 µM and the half-maximal inhibitory concentration (IC50) was found to be 10.5 µM.

With `CCOC(=O)C(Cc1ccc(N=NN(C)C)cc1)NC(=O)CC1c2ccccc2-c2ccccc21` (centres undefined), the EC50 is above 11 µM and the IC50 came out at 6.46 µM.

As for `O=c1[nH]c(-n2[nH]c3c(c2=O)CCCC3)nc(O)c1-c1ccccc1`, the EC50 was above 200 µM and the IC50 was above 200 µM.

As to `NC(=O)C1C[C@@H](O)CN1C(=O)c1ccc2c(c1)OCO2` (some centres undefined), the EC50 was above 200 µM and the IC50 is above 200 µM.

With `C=CC(O)C#Cc1cnc(OC)nc1OC` (centres undefined), the result was inactive.

As for `Brc1ccc(C2=CSC3=NCCN23)cc1`, the EC50 was above 200 µM; the concentration for half-maximal inhibition (IC50) is 23.4 µM and 107 µM.

For the molecule `Cc1c(C#N)c2n(c1C)CCN2`, the EC50 is above 1550 µM and the IC50 is above 1550 µM.

For the molecule `CCOC(=O)N1C2C=C(C)C(C3C(C)C(=O)N31)N(C(=O)c1ccccc1)O2` (centres undefined), the EC50 is above 355 µM and the concentration for half-maximal inhibition (IC50) was above 355 µM.

For the molecule `O=C1C[C@H](c2ccccc2)C2(C(=O)c3ccccc3C2=O)[C@H](c2ccccc2)C1`, the EC50 was above 102 µM and the IC50 was above 102 µM.

Consider `CN(C)[C@@H]1C(=O)C(C(=O)NCNc2nc3n[nH]nc3c(=O)[nH]2)=C(O)[C@@]2(O)C(=O)C3=C(O)c4c(O)cccc4[C@@](C)(O)[C@H]3C[C@@H]12`, for which the EC50 was above 0.891 µM and the IC50 amounted to 0.562 µM.

For `COP(=O)(OC)/C(=C/c1cn(C(C)=O)c2ccccc12)NC(C)=O`, the EC50 is above 200 µM and the IC50 was 17.4 µM.

For the molecule `CCOP(=O)(CCC(O)CNc1nc(N)nc(Cl)c1N=Nc1ccc(Cl)cc1)OCC` (centres undefined), the EC50 was above 200 µM and the half-maximal inhibitory concentration (IC50) was 6.46 µM.

`Cc1ccccc1SSc1ccccc1C`: the result was inactive.

Regarding `Nc1ncnc2c1ncn2CC(O)C(=O)O` (centres undefined), the result was inactive.

For `CC1=NN(C(=O)CC(=O)Nc2cccc(C)c2)C(=O)C1N=Nc1ccc(S(=O)(=O)CCOS(=O)(=O)O)cc1` (centres undefined), the EC50 is above 2 µM and the IC50 amounted to 1.26 µM.

With `CCCCc1ccc(N2C(=O)c3cc(C)cnc3S2(=O)=O)cc1`, the EC50 is above 200 µM and the IC50 is above 200 µM.

Regarding `CN(C)c1nc(=NCc2ccccn2)ss1`, the EC50 is above 17.4 µM and the IC50 worked out at 9.33 µM.

On to `CCCCCCCCCCCCCCCCCC(=O)NCCCNCCCNC(=O)CCCCCCCCCCCCCCCCC`, for which the EC50 is above 12.6 µM and the IC50 is above 12.6 µM.

For `CCCCNC(=NCc1ccccc1)NC#N`, the EC50 was above 407 µM and the IC50 was found to be 295 µM.

Turning to `CC1=C(C(N)=O)C(c2ccncc2)C(C#N)C(=O)N1` (centres undefined), the EC50 is above 200 µM and the IC50 turned out to be 145 µM.

For `O=c1c2cc([N+](=O)[O-])ccc2sc2ccsc12`, the EC50 is above 97.7 µM and the IC50 was above 97.7 µM.

On to `Cc1cc2c(=O)cc(-c3ccc(Cl)c(Cl)c3)oc2c(C(=O)O)c1C`, for which the result was inactive.

On to `O=[N+]([O-])c1ccc(NN=C(c2ccccc2)c2ccccc2)c([N+](=O)[O-])c1`, for which the EC50 is above 52.5 µM and the IC50 is above 52.5 µM.

On to `O=C(/C(=C1\SS/C(=C(/C(=O)c2ccccc2)c2ccccc2)S1)c1ccccc1)c1ccccc1`, for which the EC50 is above 200 µM and the IC50 is above 200 µM.

With `CC(=O)Nc1cc2cc(NC(=O)C(Cl)(Cl)Cl)ccc2oc1=O`, the EC50 was above 81.3 µM and the IC50 is above 81.3 µM.

As for `Cn1c(Cl)cn2c3nc4ccccc4nc3c(=O)c(C#N)c12`, the outcome was inactive.

In the case of `O=c1[nH]c(=O)n(C2CC(F)(F)C(CO)O2)cc1COCC(F)(F)F` (centres undefined), the EC50 was above 174 µM and the IC50 was above 174 µM.

As to `CN1C(=O)c2ccccc2OC12C=Cc1c(ccc3ccccc13)O2` (centres undefined), the EC50 was above 195 µM and the IC50 is 14.1 µM.

Consider `O=C1/C(=C/c2ccco2)NC(=S)N1CN1CCOCC1`, for which the EC50 was above 200 µM and the IC50 was determined as 91.2 µM.

Turning to `COC(=O)[C@H](CC(C)C)NC(=O)[C@H](Cc1ccccc1)N1CC2C=CC1C2` (some centres undefined), the EC50 was above 676 µM and the IC50 is above 676 µM.

Take `COC(=O)/C(=N\Nc1nnc(C)n1N)C(C#N)c1ccccc1` (centres undefined): the EC50 was above 575 µM and the IC50 came out at 93.3 µM.

Take `CC1=NS(=O)(=O)NC(C)=C1CC1=C(C)NS(=O)(=O)N=C1C`: the EC50 is above 269 µM and the IC50 is above 269 µM.

Turning to `C=CCCNCC/C=C\[Si](C)(C)C`, the EC50 is above 1260 µM and the IC50 was determined as 1230 µM.

In the case of `O=C1CSC(=S)N1`, the EC50 was above 1860 µM and the IC50 stood at 794 µM.

Take `COc1cccc(/C=N/[N+](C)(C)C)c1O`: the EC50 was above 200 µM and the IC50 is above 200 µM.

Take `CC(=O)[O-].O=[N+]([O-])c1ccc([O-])c(C=NCCN=Cc2cc([N+](=O)[O-])ccc2[O-])c1.[Mn+3]`: the EC50 is above 229 µM and the IC50 turned out to be 4.37 µM.

Take `Oc1c2cccc1Cc1cccc3c1OCCOCCOCCOCCOc1c(cccc1Cc1cccc(c1O)C3)C2`: the EC50 was above 200 µM and the IC50 was found to be 50.1 µM.

For the molecule `CCOC(=O)c1c(NC(=O)c2ccccc2)sc2c(=O)oc(-c3ccccc3)nc12`, the EC50 was above 24 µM and the IC50 was above 24 µM.

`COc1c(Cl)cc(C(=CCN[C@H]2CC[C@@]3(C)[C@@H](CC[C@@H]4[C@@H]3CC[C@]3(C)[C@@H]([C@H](C)CCCC(C)C)CC[C@@H]43)C2)c2cc(Cl)c(OC)c(C(=O)O)c2)cc1C(=O)O`: the EC50 was above 50.1 µM and the IC50 was above 50.1 µM.

Take `Cc1ccc(C2=C(c3ccccc3)C(Br)(c3ccc(C)cc3)C(c3ccccc3)=C2c2ccc(C)cc2)cc1`: the EC50 is above 2.51 µM and the IC50 is above 2.51 µM.

Turning to `COc1cc2c(cc1OC)C1CNC(C2)c2cc(OC)c(OC)cc21` (centres undefined), the EC50 was above 200 µM and the IC50 was above 200 µM.

As for `CSC1=NN(C)C2(CCCCC2)C(=O)N1`, the EC50 was 13.8 µM and the IC50 was found to be 575 µM.
